The text below walks through data of patent publication US9212147B2, “Dihydroxy aromatic heterocyclic compound” (TAKEDA PHARMACEUTICAL COMPANY LIMITED, priority 2011, dated 2015).

Assay [1] has as its target recombinant human DAAO protein (Homo sapiens (Human), UniProt P14920). Description: DAAO inhibitory activity test (H2O2 production, Amplex red/HRP fluorescence). It counts as biochemical. The note with it: recombinant human DAAO 15 nM, D-alanine substrate, FAD, pH 7.5. The method, then:
The DAAO inhibitory activity was measured by assaying the amount of hydrogen peroxide (H2O2) produced by reacting DAAO protein with flavin adenine dinucleotide (FAD) and D-alanine. The amount of H2O2 was determined by measuring the fluorescence generated on conversion of Amplex red (manufactured by Invitrogen Co.) into resorufin by the reaction of H2O2 with horseradish peroxidase (HRP).
Escherichia coli strain BL21(DE3) (manufactured by Novagen) was transformed with the constructed human DAAO expression vector, inoculated into LB culture medium containing kanamycin at a final concentration of 20 μg/mL, and shake-cultured at 37° C. overnight. The multiplied transformant was inoculated into Terrific Broth containing kanamycin at a final concentration of 20 μg/mL, and shake-cultured at 37° C. until it reached OD600=3.0. Thereafter, the culture was cooled to 30° C., and expression was induced with 1 mM IPTG. After 20 hours, bacterial pellets were recovered by centrifugation.
The bacterial pellets recovered as above were suspended in a lysis buffer (17 mM sodium pyrophosphate buffer pH 8.3, 100 μM FAD, 1 mM sodium benzoate, 1 mM PMSF, 14 mM β-mercaptoethanol, 0.2 mg/mL lysozyme) and the bacteria were fractured by sonication. The sonicated liquid was centrifuged and the supernatant was recovered. To remove the nucleic acid, to this supernatant were sequentially added NaCl (final concentration 0.5M) and 0.05% ethyleneimine (polymer) and, after thorough mixing, the supernatant was recovered by centrifugation. The supernatant was heat treated at 55° C. for 15 min, and the supernatant was recovered by centrifugation. To this supernatant was added 40% saturated ammonium sulfate and, after thorough mixing, the salt precipitate was recovered by centrifugation. The obtained salt precipitate was redissolved in buffer A (50 mM potassium phosphate buffer pH 7.4, 10% glycerol, 200 μM sodium benzoate, 10 μM FAD, 20% saturated ammonium sulfate), and filtered through a 0.22 μm filter (manufactured by Millipore). The obtained filtrate was applied to a hydrophobic interaction column Butyl-S Sepharose 6 Fast Flow (manufactured by GE Healthcare Life Sciences) and eluted with buffer B (10 mM Tris buffer solution pH 8.0, 200 μM sodium benzoate, 10% glycerol, 10 μM FAD). The eluent was applied to an anion-exchange column, Q Sepharose Fast Flow (manufactured by GE Healthcare Life Sciences) and eluted using an NaCl concentration gradient. The eluate was replaced with buffer B (sic) using Amicon Ultra-15 10 kDa (manufactured by Millipore), and thereafter applied to an anion-exchange column, RESOURCE Q 6 mL (manufactured by GE Healthcare Life Sciences), and eluted with an NaCl concentration gradient. The eluate was concentrated using Amicon Ultra-15 10 kDa, thereafter applied to a HiLoad 26/600 Superdex 200 pg (manufactured by GE Healthcare Life Sciences) gel filtration column equilibrated with buffer C (10 mM potassium phosphate buffer pH 7.4, 0.5M NaCl, 400 μM sodium benzoate, 20 μM FAD), and the DAAO protein dimer fraction was recovered. The recovered DAAO protein was replaced (sic) with buffer D (10 mM trisodium citrate, 20 μM FAD, 400 μM sodium benzoate) using Amicon Ultra-15 10 kDa, concentrated to 10 mg/mL and cryopreserved at −80° C.

Assay [2] addresses HEK293 cells that stably express human DAAO (Homo sapiens (Human), UniProt P14920). Description: Inhibitory activity test at cellular level using DAAO-expressing cells. It counts as cell-based. The note with it: D-alanine substrate. As for the experimental part:
HEK293 cells that stably express human DAAO were suspended in Cellbanker solution at 5×10^6 cells/ml and cryopreserved at −80° C. At the time of measurement, the cells were centrifuged at 1000 rpm for one min and the Cellbanker solution was removed. […] A 4% DMSO buffer solution (50 mM sodium phosphate [pH 7.5], 0.02% CHAPS) of the test compound (4 μL) was added to a 384-well black, low volume plate, the cell suspension (4 μL) was added, and the mixture was incubated at room temperature for 15 min.
Reverse transcription was performed on human normal kidney tissue-derived RNA (Clontech Corp.) using reverse transcriptase (SuperScriptIII, Life Technologies Corporation) and oligo (dT) primer (Life Technologies Corporation) according to the protocol of the kit (Life Technologies Corporation) and cDNA was synthesized. Then, using human DAAO_HindIII_F represented by Sequence No. 1 and human DAAO_BamHI_R represented by Sequence No. 2, a PCR reaction (35 cycles of 98° C. for 15 sec, 55° C. for 15 sec and 68° C. for 1 min 30 sec) was performed using DNA polymerase (PrimeSTAR, TAKARA BIO INC.) and cDNA obtained as above as a template. […] The PCR product was cloned in a cloning vector (pCR2.1-TOPO Cloning Kit, Life Technologies Corporation). The sequence of the insert was determined by the dideoxy sequence method (BigDye Terminator v3.1 Cycle Sequencing Kit; Life Technologies Corporation).
To express the ORF full length of DAAO as a protein, the above-mentioned vector was subjected to an enzyme reaction with restriction enzymes HindIII and BamHI at 37° C. for 3 hr, and the restriction enzyme-treated DNA fragment was purified. The DNA fragment containing the ORF was cloned to HindIII and BamHI sites present in the multiple cloning site of the expression vector (pcDNA3.1(+): Invitrogen Co.), whereby an expression plasmid (hDAAO/pcDNA3.1) was constructed.
Then, HEK293 cells were transfected to obtain the forced expression cell line. The cells were spread on a collagen-coated 24-well plate (Corning) to contain 1.0×10^5 cells per well on the day before transfection and, using Lipofectamine 2000 (Invitrogen) and hDAAO/pcDNA3.1, transfected according to the protocol. Thereafter, subculture was performed several times using 800 μg/mL geneticin, whereby a drug resistant cell line was obtained.
To confirm acquisition of the human DAAO expression cell line, the cells were spread on a collagen-coated 384-well black, clear bottom plate to 2.5×10^4 per well, and the cells were cultured at 37° C. in the presence of 5% CO2 for 24 hr. After culturing, the culture supernatant was removed, and a solution containing flavin adenine dinucleotide was added to Hanks-20 mM Hepes (pH 7.4) buffer to 5.5 μg/mL, added by 20 μL per well to the wells from which the supernatant had been removed, and the mixture was allowed to react at 37° C. in the presence of 5% CO2 for 1 hr.

Molecules are shown by their SMILES.

`COc1ccc(SCc2cc(=O)c(O)n[nH]2)cc1` [Example 47]: the values for the IC50 in assay [1] and in assay [2] were 5.2 nM and 12 nM, respectively.

As to `Cc1ccccc1CCc1cc(O)c(=O)[nH]n1` [Example 22], the IC50 came to 3.3 nM in assay [1] and 8.4 nM in assay [2].

On to `CC(C)(C)c1ccc(CCc2cc(O)c(=O)[nH]n2)cc1` [Example 25], for which the IC50 in assay [1] was 6.6 nM; in assay [2] it was 18 nM.

For the compound `O=c1[nH]nc(CCc2cccc3ccccc23)cc1O` [Example 56], the values for the half-maximal inhibitory concentration (IC50) in assay [1] and in assay [2] were 2.3 nM and 8.8 nM, respectively.

In the case of `O=c1[nH]nc(CCc2ccc(F)cc2F)cc1O` [Example 21], the figures for the IC50 in assay [1] and in assay [2] were 2.2 nM and 5.5 nM, respectively.

Take `O=c1[nH]nc(CCc2ccc(-c3ccccc3)cc2)cc1O` [Example 15]: the values for the IC50 in assay [1] and in assay [2] were 1.2 nM and 16 nM, respectively.

Regarding `O=c1cc(COc2cccc(F)c2)[nH]nc1O` [Example 232], the IC50 in assay [1] is 2.3 nM; in assay [2], 13 nM.

Consider `COCCCc1cc(O)c(=O)[nH]n1` [Example 26], for which, in assay [1], the IC50 was found to be 8.1 nM.

Take `O=c1cc(COc2ccc(F)cc2)[nH]nc1O` [Example 231]: the figures for the IC50 in assay [1] and in assay [2] were 2.9 nM and 13 nM, respectively.

Consider `Cc1cccc(CCc2cc(O)c(=O)[nH]n2)c1` [Example 20], for which the IC50 was 2.5 nM in assay [1] and 4.6 nM in assay [2].

Take `Cc1cc(C)cc(CCc2cc(O)c(=O)[nH]n2)c1` [Example 40]: the figures for the IC50 in assay [1] and in assay [2] were 4.7 nM and 9.8 nM, respectively.

For the compound `CCCCc1cc(O)c(=O)[nH]n1` [Example 29], the IC50 is 6.9 nM in assay [1] and 13 nM in assay [2].

Turning to `Cc1ccc(CCc2cc(O)c(=O)[nH]n2)cc1` [Example 13], the IC50 was 6.1 nM in assay [1] and 14 nM in assay [2].

Consider `O=c1[nH]nc(CCCCc2ccccc2)cc1O` [Example 52], for which the IC50 turned out to be 2.5 nM in assay [1] and 11 nM in assay [2].

Consider `O=c1[nH]cc(CCC2CCCCC2)cc1O` [Example 58], for which the half-inhibitory concentration (IC50) in assay [1] was found to be 44 nM.

As for `O=c1[nH]nc(CCc2ccc(OC(F)(F)F)cc2)cc1O` [Example 28], the IC50 turned out to be 8.1 nM in assay [1] and 18 nM in assay [2].

For orientation: IC50 means the midpoint of a concentration-inhibition curve.
